# Measurements: paper PMC3945162 (Psychopharmacology, 2013)
# Values joined by “and” are separate entries in the source; they are usually repeats but may differ in a detail not shown here. Equal values may be shown once. Read-outs that look alike come from different tables or passages of the source.
# Tests used:
# human 5-HT1A receptor [1] = molecular target: T1, human 5-HT1A receptor (Homo sapiens, UniProt P08908); assay: [35S]GTPγS binding functional assay, HEK-5-HT1A; assay type: biochemical; conditions: for Emax: read-out: 5-HT1A Function [35S]GTPγS Binding % maximal effect
# T1 sequence (P08908 1-422): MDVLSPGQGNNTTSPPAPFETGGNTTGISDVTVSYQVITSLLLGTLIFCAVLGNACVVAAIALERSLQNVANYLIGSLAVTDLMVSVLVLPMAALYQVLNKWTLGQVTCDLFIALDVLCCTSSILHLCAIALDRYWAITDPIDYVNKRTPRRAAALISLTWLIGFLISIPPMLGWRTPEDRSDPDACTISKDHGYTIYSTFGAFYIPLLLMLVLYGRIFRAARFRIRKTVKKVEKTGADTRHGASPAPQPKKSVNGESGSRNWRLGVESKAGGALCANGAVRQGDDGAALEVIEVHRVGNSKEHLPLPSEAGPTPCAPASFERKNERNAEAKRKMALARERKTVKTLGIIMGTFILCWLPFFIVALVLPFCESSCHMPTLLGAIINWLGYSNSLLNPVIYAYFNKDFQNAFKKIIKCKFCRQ
# [2] = test system: rats trained to discriminate METH (1 mg/kg) from saline; assay type: in vivo, rat; conditions: METH-trained rats, 15 min pretreatment
# hSERT [3] = molecular target: T2, hSERT (Homo sapiens, UniProt P31645); assay: [3H]Serotonin release, HEK-hSERT cells; assay type: cell-based
# hSERT [4] = molecular target: T2, hSERT; assay: [3H]Serotonin uptake, HEK-hSERT cells; assay type: cell-based
# human 5-HT2A receptor [5] = molecular target: T3, human 5-HT2A receptor (Homo sapiens, UniProt P28223); assay: [3H]AA release from HEK-5-HT2A cells; assay type: cell-based; conditions: for Emax: read-out: 5-HT2A Function [3H]AA release % maximal effect
# [6] = test system: rats trained to discriminate MDMA (1.5 mg/kg) from saline; assay type: in vivo, rat; conditions: for Rate of responding at dose of maximum DAR / Maximum %DAR (drug-appropriate responding): MDMA-trained rats, 15 min pretreatment; for Maximum %DAR (drug-appropriate responding): i.p., at dose of maximum DAR
# hNET [7] = molecular target: T4, hNET (Homo sapiens, UniProt P23975); assay: cell-based
# hDAT [8] = molecular target: T5, hDAT (Homo sapiens, UniProt Q01959); assay: [125I]RTI-55 binding, HEK-hDAT cells
# hNET [9] = molecular target: T4, hNET; assay: biochemical; assay type: binding
# hDAT [10] = molecular target: T5, hDAT; assay: [3H]Dopamine uptake, HEK-hDAT cells; assay type: cell-based
# hDAT [11] = molecular target: T5, hDAT; assay: [3H]Dopamine release, HEK-hDAT cells; assay type: cell-based; conditions: HEK-hDAT cells
# human 5-HT2A receptor [12] = molecular target: T3, human 5-HT2A receptor; assay: [125I]DOI binding, HEK-5-HT2A cells
# [13] = test system: rats trained to discriminate DOM (0.5 mg/kg) from saline; assay type: in vivo, rat; conditions: 15 min pretreatment
# [14] = test system: rats trained to discriminate LSD (0.1 mg/kg) from saline; assay type: in vivo, rat; conditions: LSD-trained rats, 15 min pretreatment; for Maximum %DAR (drug-appropriate responding): i.p., at dose of maximum DAR
# hSERT [15] = molecular target: T2, hSERT; assay: [125I]RTI-55 binding, HEK-hSERT cells
# hNET [16] = molecular target: T4, hNET; assay: cell-based; remark: listed apart in the source
# human 5-HT2A receptor [17] = molecular target: T3, human 5-HT2A receptor; assay: IP-1 formation, HEK-5-HT2A cells; assay type: cell-based; conditions: for Emax: read-out: 5-HT2A Function IP-1 formation % maximal effect
# [18] = test system: rats trained to discriminate DMT (5 mg/kg) from saline; assay type: in vivo, rat; conditions: DMT-trained rats; 15 min pretreatment
# Male Swiss–Webster mice = assay: Locomotor activity; assay type: in vivo, mouse; conditions: mice, i.p.
# Male Sprague-Dawley rats = assay: Adverse effects observed during drug discrimination test sessions; assay type: in vivo, rat
# human 5-HT1A receptor [19] = molecular target: T1, human 5-HT1A receptor; assay: [3H]8-OH-DPAT binding, HEK-5-HT1A
# human 5-HT2C receptor [20] = molecular target: T6, human 5-HT2C receptor (Homo sapiens, UniProt P28335); assay: cell-based; conditions: for Emax: read-out: 5-HT2C Function IP-formation % maximal effect
# T6 sequence (P28335 33-458): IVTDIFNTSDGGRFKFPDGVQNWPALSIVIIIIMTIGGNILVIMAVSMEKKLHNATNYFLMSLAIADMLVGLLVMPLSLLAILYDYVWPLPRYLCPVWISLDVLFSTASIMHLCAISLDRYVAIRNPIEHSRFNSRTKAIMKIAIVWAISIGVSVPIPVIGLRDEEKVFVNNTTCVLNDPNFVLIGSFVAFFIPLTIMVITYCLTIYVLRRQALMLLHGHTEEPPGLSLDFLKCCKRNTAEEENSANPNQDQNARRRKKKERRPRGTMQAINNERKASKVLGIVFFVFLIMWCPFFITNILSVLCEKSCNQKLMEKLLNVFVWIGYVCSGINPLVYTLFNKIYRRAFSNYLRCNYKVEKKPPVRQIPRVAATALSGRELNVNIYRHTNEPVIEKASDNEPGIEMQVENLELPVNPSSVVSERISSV
# human 5-HT2C receptor [21] = molecular target: T6, human 5-HT2C receptor; assay: biochemical; assay type: binding
# [22] = normalized to the maximal effect of serotonin
# T4 sequence (P23975 whole entry): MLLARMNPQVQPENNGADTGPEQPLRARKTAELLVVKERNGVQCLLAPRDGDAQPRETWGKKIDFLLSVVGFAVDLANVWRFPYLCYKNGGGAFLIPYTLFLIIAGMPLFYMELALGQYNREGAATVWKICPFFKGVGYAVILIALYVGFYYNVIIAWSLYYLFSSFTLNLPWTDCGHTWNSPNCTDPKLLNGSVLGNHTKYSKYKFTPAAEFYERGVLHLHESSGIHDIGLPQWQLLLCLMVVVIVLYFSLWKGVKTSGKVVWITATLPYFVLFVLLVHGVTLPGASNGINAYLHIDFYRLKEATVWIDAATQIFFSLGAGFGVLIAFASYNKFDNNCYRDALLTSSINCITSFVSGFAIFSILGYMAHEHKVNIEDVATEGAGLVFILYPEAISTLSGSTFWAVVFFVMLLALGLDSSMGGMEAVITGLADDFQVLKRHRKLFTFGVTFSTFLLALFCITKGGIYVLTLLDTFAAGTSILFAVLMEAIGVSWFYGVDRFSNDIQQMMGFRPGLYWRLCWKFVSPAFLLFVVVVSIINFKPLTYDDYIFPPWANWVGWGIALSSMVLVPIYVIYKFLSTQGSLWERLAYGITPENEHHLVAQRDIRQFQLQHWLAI
# T3 sequence (P28223 whole entry): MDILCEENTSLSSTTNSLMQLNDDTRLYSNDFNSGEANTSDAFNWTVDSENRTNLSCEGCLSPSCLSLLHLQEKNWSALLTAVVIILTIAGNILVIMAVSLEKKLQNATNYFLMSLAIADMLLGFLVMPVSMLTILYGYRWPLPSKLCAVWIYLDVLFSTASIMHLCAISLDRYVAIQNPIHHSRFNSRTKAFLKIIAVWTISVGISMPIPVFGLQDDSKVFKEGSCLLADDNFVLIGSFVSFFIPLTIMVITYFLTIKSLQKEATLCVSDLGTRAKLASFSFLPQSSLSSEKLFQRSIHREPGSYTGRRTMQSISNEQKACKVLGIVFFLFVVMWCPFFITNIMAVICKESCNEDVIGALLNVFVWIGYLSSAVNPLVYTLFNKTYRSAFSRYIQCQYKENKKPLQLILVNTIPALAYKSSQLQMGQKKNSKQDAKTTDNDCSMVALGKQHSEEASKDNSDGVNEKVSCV
# T5 sequence (Q01959 whole entry): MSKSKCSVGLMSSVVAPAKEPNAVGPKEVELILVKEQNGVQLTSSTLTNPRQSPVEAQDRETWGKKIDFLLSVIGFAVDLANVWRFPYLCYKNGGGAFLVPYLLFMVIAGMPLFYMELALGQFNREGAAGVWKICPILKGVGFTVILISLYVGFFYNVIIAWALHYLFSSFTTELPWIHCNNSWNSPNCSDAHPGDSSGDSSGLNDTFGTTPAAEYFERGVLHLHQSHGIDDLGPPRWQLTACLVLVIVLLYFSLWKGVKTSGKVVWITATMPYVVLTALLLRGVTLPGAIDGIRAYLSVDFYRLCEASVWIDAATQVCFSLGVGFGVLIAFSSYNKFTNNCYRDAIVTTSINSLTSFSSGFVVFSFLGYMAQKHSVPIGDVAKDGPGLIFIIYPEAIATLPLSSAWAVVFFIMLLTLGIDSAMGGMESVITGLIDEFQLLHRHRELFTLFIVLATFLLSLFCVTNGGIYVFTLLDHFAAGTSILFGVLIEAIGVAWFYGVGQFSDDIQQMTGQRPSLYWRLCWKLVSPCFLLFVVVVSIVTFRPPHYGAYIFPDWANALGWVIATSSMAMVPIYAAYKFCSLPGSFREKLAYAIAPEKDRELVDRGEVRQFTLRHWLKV
# T2 sequence (P31645 whole entry): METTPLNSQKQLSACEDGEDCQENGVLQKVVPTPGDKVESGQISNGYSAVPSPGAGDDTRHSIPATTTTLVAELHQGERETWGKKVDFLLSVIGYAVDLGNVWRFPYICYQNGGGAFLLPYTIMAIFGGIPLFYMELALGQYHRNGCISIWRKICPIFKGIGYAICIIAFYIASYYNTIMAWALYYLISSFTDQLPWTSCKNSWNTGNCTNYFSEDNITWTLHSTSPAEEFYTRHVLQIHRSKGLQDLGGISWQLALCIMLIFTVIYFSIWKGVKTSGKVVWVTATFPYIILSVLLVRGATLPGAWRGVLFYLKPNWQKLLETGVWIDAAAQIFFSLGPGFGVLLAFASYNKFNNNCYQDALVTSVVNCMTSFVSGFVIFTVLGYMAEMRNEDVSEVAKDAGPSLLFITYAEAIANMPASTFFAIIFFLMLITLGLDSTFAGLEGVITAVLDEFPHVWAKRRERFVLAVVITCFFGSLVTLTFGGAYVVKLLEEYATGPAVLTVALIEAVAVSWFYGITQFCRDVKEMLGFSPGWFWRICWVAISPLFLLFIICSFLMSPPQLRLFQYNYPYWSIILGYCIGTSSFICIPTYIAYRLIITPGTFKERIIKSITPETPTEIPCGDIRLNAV
Structure (SMILES),Emax (human 5-HT1A receptor [1]) [%],Rate of responding at dose of maximum DAR [2] [resp/s],[3H]Serotonin release % PCA maximal effect (hSERT [3]),IC50 (hSERT [4]) [µM],EC50 (human 5-HT2A receptor [5]) [µM],Emax (human 5-HT2A receptor [5]) [%],Rate of responding at dose of maximum DAR [6] [resp/s],[3H]NE release % METH maximal effect (hNET [7]),Ki (hDAT [8]) [µM],Ki (hNET [9]) [µM],IC50 (hDAT [10]) [µM],[3H]Dopamine release % METH maximal effect (hDAT [11]),Ki (human 5-HT2A receptor [12]) [µM],Rate of responding at dose of maximum DAR [14] [resp/s],Ki (hSERT [15]) [µM],IC50 (hNET [16]) [µM],EC50 (human 5-HT2A receptor [17]) [µM],Emax (human 5-HT2A receptor [17]) [%],EC50 (human 5-HT1A receptor [1]) [µM],Ki (human 5-HT1A receptor [19]) [µM],further results
"CCc1cc(OC)c(CCN)cc1OC [2C-E, 2,5-dimethoxy-4-ethylphenethylamine]",< 20,0.228±0.024,ND Minimal,> 7.5,0.0071 ± 0.0033,65 ± 11,0.053±0.036,ND Minimal,> 10,> 7.6,> 10,ND Minimal,0.0045 ± 0.00071,0.413±0.061,> 10,> 9.8,0.084 ± 0.016,125 ± 13,–,–,"Maximum %DAR (drug-appropriate responding) [6]: 100±0 %; Rate of responding at dose of maximum DAR [13]: 0.576±0.087 resp/s; Maximum %DAR (drug-appropriate responding) ([13]; i.p., at dose of maximum DAR): 97±2 %; Maximum %DAR (drug-appropriate responding) [14]: 97±3 %; Rate of responding at dose of maximum DAR [18]: 0.466±0.166 resp/s; Duration of depressant effects (Male Swiss–Webster mice): 50 to 70 min; Duration of stimulant effects (Male Swiss–Webster mice): 70 to 100 min; Onset of depressant effects (within, after injection) (Male Swiss–Webster mice): ≤ 10 min; Onset of stimulant effects (within, after injection) (Male Swiss–Webster mice): ≤ 50 min; Adverse effect observed (Male Sprague-Dawley rats; 10 mg/kg, MDMA-trained rats): Loss of muscle tone; Effect on responding (Male Sprague-Dawley rats; 25 mg/kg): completely suppressed responding"
"COC(=O)[C@H]1[C@@H](OC(=O)c2ccccc2)C[C@@H]2CC[C@H]1N2C [Cocaine, reference compound]",–,–,ND Minimal,–,–,–,–,–,–,–,–,ND Minimal,–,–,–,–,–,–,–,–,–
"COc1cc(CC(C)N)c(OC)cc1C (stereo not drawn) [DOM, 2,5-dimethoxy-4-methylamphetamine, reference compound]",53.8 ± 9.7,–,–,–,–,–,–,–,–,–,–,–,0.0081 ± 0.0022,–,–,–,0.0312 ± 0.0096,106 ± 11,13.9 ± 1.5,11.9 ± 5.6,–
"CCN(CC)C(=O)[C@@H]1C=C2c3cccc4[nH]cc(c34)C[C@H]2N(C)C1 [LSD, lysergic acid diethylamide, reference compound]",–,–,–,–,–,–,–,–,–,–,–,–,–,–,–,–,–,–,–,–,"IC50 (hSERT [4]; read-out: [3H]Serotonin uptake IC50, HEK-hSERT cells, cells printed in μM): > 10 µM; 5-HT2A Function [3H]AA release % maximal effect (human 5-HT2A receptor [5]; [22]): 87.8 ± 3.4%; Ki (hDAT [8]; read-out: hDAT [125I]RTI-55 binding Ki, HEK-hDAT cells, cells printed in μM): > 10 µM; Ki (hNET [9]; read-out: hNET [125I]RTI-55 binding Ki): 5.6 ± 0.26 µM; IC50 (hDAT [10]; read-out: [3H]Dopamine uptake IC50, HEK-hDAT cells, cells printed in μM): > 10 µM; Ki (hSERT [15]; read-out: hSERT [125I]RTI-55 binding Ki, HEK-hSERT cells, cells printed in μM): > 10 µM; IC50 (hNET [16]; read-out: [3H]NE uptake IC50): > 10 µM; 5-HT2A Function IP-1 formation % maximal effect (human 5-HT2A receptor [17]; [22]): 80.3 ± 4.9%"
"CNC(C)Cc1ccc2c(c1)OCO2 (stereo not drawn) [MDMA, 3,4-methylenedioxymethamphetamine, reference compound]",64.3 ± 9.4,–,–,–,–,–,–,–,–,–,–,–,20.9 ± 4.6,–,–,–,5500 ± 2300,40.2 ± 7.1,36 ± 16,11.9 ± 1.2,Emax (human 5-HT2C receptor [20]): 92.2 ± 8%
"COc1cc(CCN)c(OC)cc1I [2C-I, 2,5-dimethoxy-4-iodophenethylamine]",102 ± 4.7,0.447±0.058,ND Minimal,5.6 ± 2.1,–,32.5 ± 1.5,0.453±0.169,ND Minimal,> 10,> 10,> 9.6,ND Minimal,0.0093 ± 0.0032,0.233±0.075,0.95 ± 0.44,> 8.2,0.0079 ± 0.0022,82.4 ± 6.4,4.9 ± 2,0.97 ± 0.43,"EC50 (human 5-HT2C receptor [20]): 0.0028 ± 0.001 µM; Emax (human 5-HT2C receptor [20]): 79 ± 16%; Maximum %DAR (drug-appropriate responding) ([2]; i.p., at dose of maximum DAR): 38% and 38±17 ^1%; Maximum %DAR (drug-appropriate responding) [6]: 65% and 65±21 ^1%; Dose(s) that decreased response rate ([6]; rat, in vivo): 2.5 to 10 mg/kg; Maximum %DAR (drug-appropriate responding) [14]: 80±20 %; Rate of responding at dose of maximum DAR [18]: 0.480±0.092 resp/s; Doses producing depression of locomotor activity (Male Swiss–Webster mice): 3 to 30 mg/kg; Duration of depressant effects (Male Swiss–Webster mice): 30 to 60 min; Onset of depressant effects (within, after injection) (Male Swiss–Webster mice): ≤ 10 min; Ki (human 5-HT2C receptor [21]): 0.0102 ± 0.0017 µM"
"CN(C)CCc1c[nH]c2ccccc12 [DMT, N,N,-dimethyltryptamine, reference compound]",100 ± 5.2,–,–,–,0.26 ± 0.12,105 ± 3,–,–,–,–,–,–,0.201 ± 0.048,–,–,–,0.269 ± 0.061,39 ± 4.6,–,–,–
"NCCc1c[nH]c2ccc(O)cc12 [Serotonin, reference compound]",–,–,–,–,–,–,–,–,–,–,–,–,–,–,–,–,–,–,–,–,Average maximal stimulation of IP-1 formation (human 5-HT2A receptor [17]; HEK-5-HT2A cells): 565 ± 46 nM IP1
"CCSc1cc(OC)c(CCN)cc1OC [2C-T-2, 2,5-dimethoxy-4-ethylthiophenethylamine]",76 ± 10,0.748±0.109,ND Minimal,> 8.6,0.0023 ± 0.00069,107 ± 6.3,0.448±0.130,ND Minimal,> 10,> 10,> 10,ND Minimal,0.0125 ± 0.0044,0.208±0.117,> 9.4,> 7.2,0.0079 ± 0.002,87.4 ± 6.5,3 ± 1.3,1.74 ± 0.66,"Rate of responding at dose of maximum DAR [18]: 0.170±0.106 resp/s; Duration of depressant effects (Male Swiss–Webster mice): 30 to 50 min; Decreased muscle tone (rats affected/tested) (Male Sprague-Dawley rats; 5 mg/kg, LSD-trained rats): 3/6; Adverse effects observed (Male Sprague-Dawley rats; 10 mg/kg): hind limb paralysis, salivation and loss of muscle tone; Rats that failed to complete the first fixed ratio (Male Sprague-Dawley rats; highest dose tested, in each of DMT-, LSD-, MDMA- and METH-trained groups): 5/6"
